Data as given in US11000033B2, “Ketone or oxime compound, and herbicide” (NISSAN CHEMICAL CORPORATION, priority 2014, dated 2021).

Key:
Assay type in all cases: in vivo
Apera spica-venti = test: Test Example 5: herbicidal effect by foliage application, plastic box (symbol L); settings: 320 g/ha, 3 weeks after application
Method in brief: (§1)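 Visual herbicidal score, taken three weeks post-application, of seedlings sprayed on the foliage with water-diluted emulsion at a predetermined amount; plants were 14 days old, greenhouse-raised at 25° C. to 30° C.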

soybean = test: Test Example 5: effect on crop by foliage application, plastic box (symbol d); settings: 320 g/ha, 3 weeks after application
Method in brief: (§2)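 Greenhouse test at 25° C. to 30° C. Seeds of crops and weeds were spot-sown in boxes of sterilized diluvial soil under roughly 1.5 cm soil cover, then grown for foliage treatment.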

Veronica persica = test: Test Example 5: herbicidal effect by foliage application, plastic box (symbol R); settings: 320 g/ha, 3 weeks after application
Method in brief: as §1

wheat [1] = test: Test Example 4: effect on crop by soil treatment (symbol e); settings: application herbicide amount 320 g/ha
Method in brief: (§3)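 Steps: fill box with sterilized diluvial soil; sow seed spot-like; cover with ~1.5 cm soil; grow in greenhouse (25° C. to 30° C.).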

Scirpus juncoides = test: Test Example 1: herbicidal activity, application before weed generation in submerged conditions (symbol B); settings: application herbicide amount 320 g/ha
Method in brief: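 Ratings (5: ≥90%, near complete withering; 4: 70–<90%; 3: 40–<70%; 2: 20–<40%; 1: 5–<20%; 0: ≤5%) were assigned 3 weeks after the diluted emulsion was applied to the water surface of freshly sown, submerged pots.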

Alopecurus myosuroides = test: Test Example 4: herbicidal effect by soil treatment (symbol J); settings: application herbicide amount 320 g/ha
Method in brief: (§4)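 Seeds were sown in sterilized diluvial soil, covered with about 1.5 cm of soil, and the soil surface was sprayed with a water-diluted emulsion of the compound at a predetermined rate. Plants grew in a greenhouse at 25° C. to 30° C.; effects were scored visually 3 weeks after application.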

corn [2] = test: Test Example 4: effect on crop by soil treatment (symbol c); settings: application herbicide amount 320 g/ha
Method in brief: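 Greenhouse culture at 25° C. to 30° C. followed sowing of seed in spots on sterilized diluvial soil with a soil cover close to 1.5 cm thick.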

corn [3] = test: Test Example 5: effect on crop by foliage application, plastic box (symbol c); settings: 320 g/ha, 3 weeks after application
Method in brief: as §2

rice = test: Test Example 4: effect on crop by soil treatment (symbol b); settings: application herbicide amount 320 g/ha
Method in brief: as §3

Digitaria ciliaris = test: Test Example 5: herbicidal effect by foliage application, plastic box (symbol F); settings: 320 g/ha, 3 weeks after application
Method in brief: as §1

[4] = system: Echinochloa crus-galli var. crus-galli; test: Test Example 3: herbicidal effect by foliage application, Wagner pot (symbol H); settings: application herbicide amount 320 g/ha
Method in brief: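 Foliar spray of a water-diluted emulsion at a predetermined herbicide amount, applied to 14-day-old plants. Seedlings were raised in flooded alluvial soil (0.1–0.5 cm water) at 25–30 °C in a greenhouse. Injury was rated after 3 weeks against fixed criteria.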

[5] = system: Echinochloa crus-galli var. crus-galli; test: Test Example 4: herbicidal effect by soil treatment (symbol H); settings: application herbicide amount 320 g/ha
Method in brief: as §4

Lolium multiflorum Lam. = test: Test Example 4: herbicidal effect by soil treatment (symbol K); settings: application herbicide amount 320 g/ha
Method in brief: as §4

Setaria viridis = test: Test Example 4: herbicidal effect by soil treatment (symbol G); settings: application herbicide amount 320 g/ha
Method in brief: as §4

rapeseed = test: Test Example 5: effect on crop by foliage application, plastic box (symbol g); settings: 320 g/ha, 3 weeks after application
Method in brief: as §2

Stellaria media = test: Test Example 4: herbicidal effect by soil treatment (symbol P); settings: application herbicide amount 320 g/ha
Method in brief: as §4

wheat [6] = test: Test Example 5: effect on crop by foliage application, plastic box (symbol e); settings: 320 g/ha, 3 weeks after application
Method in brief: as §2

Row | Structure (SMILES) | L: Apera spica-venti, herbicidal effect grade (Apera spica-venti) | d: soybean, effect on crop grade (soybean) | R: Veronica persica, herbicidal effect grade (Veronica persica) | e (wheat) effect on crop grade (wheat [1]) | Herbicidal effect grade, B: Scirpus juncoides (Scirpus juncoides) | J (Alopecurus myosuroides) herbicidal effect grade (Alopecurus myosuroides) | c (corn) effect on crop grade (corn [2]) | c: corn, effect on crop grade (corn [3]) | b (directly sowed rice plant) effect on crop grade (rice) | F: Digitaria ciliaris, herbicidal effect grade (Digitaria ciliaris) | herbicidal effect on H (Echinochloa crus-galli var. crus-galli), grade 0-5 [4] | H (Echinochloa crus-galli var. crus-galli) herbicidal effect grade [5] | K (Lolium multiflorum Lam.) herbicidal effect grade (Lolium multiflorum Lam.) | G (Setaria viridis) herbicidal effect grade (Setaria viridis) | g: rapeseed, effect on crop grade (rapeseed) | P (Stellaria media) herbicidal effect grade (Stellaria media) | e: wheat, effect on crop grade (wheat [6])
1 | CCC(C)C(CC1CC(O)=C(c2c(C)cc(C)cc2C)C1=O)=NOC (centres unmarked) [1-066] | 4 (Herbicidal ratio of 70% or higher and lower than 90%) | 0 (Herbicidal ratio of 5% or lower (almost no effect)) | 3 (Herbicidal ratio of 40% or higher and lower than 70%) | 0 (Herbicidal ratio of 5% or lower (almost no effect)) | 0 (Herbicidal ratio of 5% or lower (almost no effect)) | 5 (Herbicidal ratio of 90% or more (almost completely withered)) | 4 (Herbicidal ratio of 70% or higher and lower than 90%) | 4 (Herbicidal ratio of 70% or higher and lower than 90%) | 5 (Herbicidal ratio of 90% or more (almost completely withered)) | 4 (Herbicidal ratio of 70% or higher and lower than 90%) | 5 (Herbicidal ratio of 90% or more (almost completely withered)) | 5 (Herbicidal ratio of 90% or more (almost completely withered)) | 5 (Herbicidal ratio of 90% or more (almost completely withered)) | 4 (Herbicidal ratio of 70% or higher and lower than 90%) | 3 (Herbicidal ratio of 40% or higher and lower than 70%) | 0 (Herbicidal ratio of 5% or lower (almost no effect)) | 0 (Herbicidal ratio of 5% or lower (almost no effect))
2 | CON=C(CC1CC(O)=C(c2c(C)cc(C)cc2C)C1=O)c1ccccn1 (centres unmarked) [1-045] | 5 (Herbicidal ratio of 90% or more (almost completely withered)) | 1 (Herbicidal ratio of 5% or higher and lower than 20%) | 0 (Herbicidal ratio of 5% or lower (almost no effect)) | 0 (Herbicidal ratio of 5% or lower (almost no effect)) | 2 (Herbicidal ratio of 20% or higher and lower than 40%) | 0 (Herbicidal ratio of 5% or lower (almost no effect)) | 0 (Herbicidal ratio of 5% or lower (almost no effect)) | 3 (Herbicidal ratio of 40% or higher and lower than 70%) | 0 (Herbicidal ratio of 5% or lower (almost no effect)) | 4 (Herbicidal ratio of 70% or higher and lower than 90%) | 5 (Herbicidal ratio of 90% or more (almost completely withered)) | 0 (Herbicidal ratio of 5% or lower (almost no effect)) | 4 (Herbicidal ratio of 70% or higher and lower than 90%) | 0 (Herbicidal ratio of 5% or lower (almost no effect)) | 2 (Herbicidal ratio of 20% or higher and lower than 40%) | 0 (Herbicidal ratio of 5% or lower (almost no effect)) | 0 (Herbicidal ratio of 5% or lower (almost no effect))
3 | CCCC(CC1CC(O)=C(c2c(C)cc(C)cc2C)C1=O)=NOC (centres unmarked) [1-062] | 5 (Herbicidal ratio of 90% or more (almost completely withered)) | 0 (Herbicidal ratio of 5% or lower (almost no effect)) | 0 (Herbicidal ratio of 5% or lower (almost no effect)) | 0 (Herbicidal ratio of 5% or lower (almost no effect)) | 2 (Herbicidal ratio of 20% or higher and lower than 40%) | 5 (Herbicidal ratio of 90% or more (almost completely withered)) | 4 (Herbicidal ratio of 70% or higher and lower than 90%) | 4 (Herbicidal ratio of 70% or higher and lower than 90%) | 5 (Herbicidal ratio of 90% or more (almost completely withered)) | 1 (Herbicidal ratio of 5% or higher and lower than 20%) | 4 (Herbicidal ratio of 70% or higher and lower than 90%) | 5 (Herbicidal ratio of 90% or more (almost completely withered)) | 5 (Herbicidal ratio of 90% or more (almost completely withered)) | 5 (Herbicidal ratio of 90% or more (almost completely withered)) | 3 (Herbicidal ratio of 40% or higher and lower than 70%) | 0 (Herbicidal ratio of 5% or lower (almost no effect)) | 0 (Herbicidal ratio of 5% or lower (almost no effect))
4 | CON=C(C)CC1CC(OC)=C(c2c(C)cc(C)cc2C)C1=O (centres unmarked) [1-001, 2-mesityl-3-methoxy-5-{2-(methoxyimino)propyl}cyclopent-2-enone] | 0 (Herbicidal ratio of 5% or lower (almost no effect)) | 0 (Herbicidal ratio of 5% or lower (almost no effect)) | 0 (Herbicidal ratio of 5% or lower (almost no effect)) | 0 (Herbicidal ratio of 5% or lower (almost no effect)) | 0 (Herbicidal ratio of 5% or lower (almost no effect)) | 0 (Herbicidal ratio of 5% or lower (almost no effect)) | 0 (Herbicidal ratio of 5% or lower (almost no effect)) | 0 (Herbicidal ratio of 5% or lower (almost no effect)) | 0 (Herbicidal ratio of 5% or lower (almost no effect)) | 0 (Herbicidal ratio of 5% or lower (almost no effect)) | 0 (Herbicidal ratio of 5% or lower (almost no effect)) | 0 (Herbicidal ratio of 5% or lower (almost no effect)) | 0 (Herbicidal ratio of 5% or lower (almost no effect)) | 0 (Herbicidal ratio of 5% or lower (almost no effect)) | 0 (Herbicidal ratio of 5% or lower (almost no effect)) | 0 (Herbicidal ratio of 5% or lower (almost no effect)) | 0 (Herbicidal ratio of 5% or lower (almost no effect))
